Paper PMC8145572 (Viruses, 2021)
“Also recorded” adds a separate entry of the source. Like-named read-outs stand apart in the source and are kept apart here.

Key:
[1] = tested on: Dengue virus serotype 2 (DENV2), strain New Guinea C; assay: Antiviral evaluation; assay type: cell-based; conditions: SK-N-MC cells; for EC50: MOI 0.1, AUC of viral burden over 4 days
[2] = tested on: Dengue virus serotype 2 (DENV2), strain New Guinea C; assay: Antiviral evaluation; assay type: cell-based; conditions: for EC50: MOI 0.01, AUC of viral burden over 3 days
[3] = tested on: DENV-infected SK-N-MC cells; assay: WST-1 cell viability assay, DENV-infected SK-N-MC cells; assay type: cell-based, human; conditions: MOI 0.1, 3 days
[4] = WST-1 cell proliferation assay, uninfected HFF-1 cells; conditions: human
HFF-1 cells = assay: as above; conditions: uninfected HFF-1 cells; for cytotoxicity in uninfected cells: evaluated concentrations; for CC50: 72 h
[5] = WST-1 cell proliferation assay, uninfected SK-N-MC cells; conditions: human
SK-N-MC cells = assay: as above; conditions: uninfected SK-N-MC cells; for cytotoxicity in uninfected cells: evaluated concentrations; for CC50: 72 h
[6] = tested on: DENV-infected HFF-1 cells; assay: WST-1 cell viability assay, DENV-infected HFF-1 cells; assay type: cell-based, human; conditions: MOI 1, 3 days
[7] = tested on: Dengue virus serotype 2 (DENV2), strain New Guinea C; assay: Antiviral evaluation; assay type: cell-based; conditions: HFF-1 cells; for EC50: MOI 0.1, AUC of viral burden over 2 days; for viral burden in all treatment arms: all concentrations
[8] = WST-1 cell proliferation assay, uninfected HUH-7 cells; conditions: human
HUH-7 cells = assay: as above; conditions: uninfected HUH-7 cells; for cytotoxicity in uninfected cells: evaluated concentrations; for CC50: 72 h
[9] = tested on: DENV-infected HUH-7 cells; assay: WST-1 cell viability assay, DENV-infected HUH-7 cells; assay type: cell-based, human; conditions: MOI 0.01, 3 days
[10] = tested on: Dengue virus serotype 2 (DENV2), strain New Guinea C; assay: Combination drug assay UV-4B and IFN, DENV-infected HUH-7 cells, plaque assay; assay type: cell-based; conditions: day 2, 25 µM
[11] = Phase I study, one-time dose of 1000 mg; cited from earlier work
[12] = tested on: Dengue virus serotype 2 (DENV2), strain New Guinea C; assay: Combination drug assay UV-4B and IFN, DENV-infected SK-N-MC cells, plaque assay; assay type: cell-based; conditions: 400 µM

Molecule: NC(=O)c1nc(F)c[nH]c1=O [FAV, favipiravir]
- EC50 ([1]; Dengue virus, DENV2, 96 h): 288 µM
- lowering of viral titers ([1]; Day 2, 250 µM): approximately 0.6 log10 PFU/mL
- total reduction of viral titers ([1]; Day 2, 500 µM): 1.3 log10 PFU/mL
- additional decrease of viral titers over 250 µM ([1]; Day 2, 500 µM versus 250 µM): 0.7 log10 PFU/mL
- EC50 ([2]; Dengue virus, DENV2, Huh-7, 72 h, HUH-7 cells): 147 µM
- decrease in titers relative to the control ([2]; HUH-7 cells, 250 µM): approximate tenfold decrease
- EC50 ([2]; HUH-7 cells, read-out: EC50): 149 µM
- maximum reduction in viral titers ([2]; HUH-7 cells, highest concentration evaluated): 1.2 log10 PFU/mL
- cell viability of infected cells [3]: limited effect on cell health
- CC50 at 72 h [4]: > 500 µM
- cytotoxicity in uninfected cells (HFF-1 cells): no cytotoxicity
- CC50 at 72 h [5]: > 500 µM
- cytotoxicity in uninfected cells (SK-N-MC cells): no cytotoxicity
- cell viability of infected cells [6]: limited effect on cell health
- EC50 ([7]; Dengue virus, DENV2, 48 h): > 500 µM
- viral burden in all treatment arms [7]: completely ineffective
- CC50 at 72 h [8]: > 500 µM
- cytotoxicity in uninfected cells (HUH-7 cells): no cytotoxicity
- cell viability of infected cells [9]: limited effect on cell health

Molecule: COCCCCCCCCCN1C[C@H](O)[C@@H](O)[C@H](O)[C@H]1CO.Cl [UV-4B]
- EC50 [1]: 49.4 µM
- decrease in viral titers ([1]; day 2, 25 µM): 1.6 log10 PFU/mL
- decrease in viral titers ([1]; day 2, 400 µM): 3.6 log10 PFU/mL
- reduction of viral titers, monotherapy [10]: 1.7 log10 PFU/mL
- EC50 ([2]; HUH-7 cells, read-out: EC50): 23.8 µM
- cell viability of infected cells [3]: concentrations ≥ 25 µM caused dramatic increases in cell viability
- CC50 (HFF-1 cells): > 400 µM
- Cmax [11]: ~40 µM
- CC50 (SK-N-MC cells): > 400 µM
- cell viability of infected cells [6]: moderate declines in viability observed at 100 and 400 µM
- EC50 [7]: 37.4 µM
- decline in peak viral titers, monotherapy [12]: 3.8 log10 PFU/mL
- CC50 (HUH-7 cells): 135 µM
- cell viability of infected cells [9]: remained comparable to the infected control; also recorded: declines in cell viability observed at UV-4B concentrations of 100 and 400 µM

Molecule: interferon-alpha [IFN]
- reduction of peak titers ([2]; HUH-7 cells, 100 IU/mL): 2.4 log10 PFU/mL
- effect on production of infectious virus ([2]; HUH-7 cells, 10,000 IU/mL): completely curbed the production of infectious virus
- CC50 (HFF-1 cells): >10,000 IU/mL
- CC50 (SK-N-MC cells): 1074 IU/mL
- cell viability of infected cells [6]: Percent cell viability stayed constant
- CC50 (HUH-7 cells): >10,000 IU/mL
- cell viability of infected cells [9]: concentrations ≥ 10 IU/mL markedly increased cell viability

Molecule: CC(C)OC(=O)[C@H](C)N[P@](=O)(OC[C@H]1O[C@@H](n2ccc(=O)[nH]c2=O)[C@](C)(F)[C@@H]1O)Oc1ccccc1 [SOF, sofosbuvir]
- EC50 ([1]; Dengue virus, DENV2, 96 h): > 10 µM
- viral burden in all treatment arms ([1]; all concentrations): comparable to the no treatment control
- EC50 ([2]; Dengue virus, DENV2, 72 h, HUH-7 cells, read-out: EC50): 6.96 µM
- viral titers ([2]; HUH-7 cells, 10 µM): below the limit of detection
- reduction in viral burden ([2]; HUH-7 cells, 4 and 6 µM): ~100 fold
- cell viability of infected cells [3]: minimal changes in cell viability
- CC50 at 72 h [4]: > 10 µM
- cytotoxicity in uninfected cells (HFF-1 cells): no cytotoxicity
- CC50 at 72 h [5]: > 10 µM
- cytotoxicity in uninfected cells (SK-N-MC cells): no cytotoxicity
- cell viability of infected cells [6]: did not change relative to the uninfected control
- EC50 ([7]; Dengue virus, DENV2, 48 h): > 10 µM
- viral burden in all treatment arms [7]: comparable to the no treatment control
- CC50 at 72 h [8]: > 10 µM
- cytotoxicity in uninfected cells (HUH-7 cells): no cytotoxicity
- cell viability of infected cells [9]: yielded improvements in cell viability
